Among the data in patent US10669250B2, “Hypervalent iodine CF2CF2X reagents and their use” (ETH Zurich, priority 2014, dated 2020) are storage stability values, retold here.

Where a name gives a salt, the structure may show the parent alone.

A short description of this series: Storage stability of reagent 7 and its Boc and salt forms. It counts as physicochemical. An excerpt:
The synthesis of reagent 7-salt is described in Scheme 1. The phenolic oxygen of Boc-protected NMT (N-methyltyramine) was deprotonated with NaH and treated with BrCF2CF2Br (Halon 2402) giving the bromide 4, which was converted to corresponding fluoroalkylsilane 5. […] For that reason, it was generated in situ from 7-salt by addition of base in all subsequent syntheses.

`CN(CCc1ccc(OC(F)(F)C(F)(F)I2OC(C)(C)c3ccccc32)cc1)C(=O)OC(C)(C)C` [Reagent 7-Boc, tert-Butyl (4-(2-(3,3-dimethyl-1λ^3-benzo[d][1,2]iodaoxol-1 (3H)-yl)-1,1,2,2-tetrafluoroethoxy)phenethyl)-(methyl)carbamate]: the storage stability entry (brown oil, at −20° C.) was “stable for at least for six months”. `CNCCc1ccc(OC(F)(F)C(F)(F)I2OC(C)(C)c3ccccc32)cc1` [Reagent 7-salt, 3,3-Dimethyl-1-(1,1,2,2-tetrafluoro-2-(4-(2-(methylammonio)ethyl)phenoxy)ethyl)-2,3-dihydro-1H-1λ^3-benzo[d][1,2]iodaoxol-2-ium bis(trifluoroacetate)]: the storage stability entry (crystalline, at room temperature) is reported as “appeared stable”. For the compound `CNCCc1ccc(OC(F)(F)C(F)(F)I2OC(C)(C)c3ccccc32)cc1` [Reagent 7, 2-(4-(2-(3,3-Dimethyl-1λ^3-benzo[d][1,2]iodaoxol-1 (3H)-yl)-1,1,2,2-tetrafluoroethoxy)phenyl)-N-methylethan-1-amine], the storage stability result (isolated deprotected reagent, stored in a freezer) is reported as “decomposed rapidly”.
